Laboratory results reported in US8729047B2, “Compositions for inhibiting redox-sensitive GTPases” (Board of Regents, The University of Texas System, priority 2010, dated 2014).
Read-outs that look alike come from different tables or passages of the source.

Key:
Rac1 = Rac1 (Homo sapiens, UniProt P63000); experiment: Competitive binding assay, [3H]GDP-loaded Rho protein titrated with 6-TGDP (FIG. 16A); design: made in house; host or cells: E. coli
Description: FIG. 16. Kinetic properties of RhoC with 6-TGDP in the presence or absence of a redox agent. All kinetic analyses are described elsewhere herein. (A) ^appKD values of Rac1, RhoA, RhoC, and RhoC C20S for 6-TGDP were estimated to be 7.9, 11.6, 11.8, and 11.2 μM, respectively. ^trueKD values of Rac1, RhoA, […] for 6-TGDP were then calculated to be 5.1, 10.8, 11.1, and 10.5 μM, respectively, by using a compensation equation, ^trueKD for 6-TGDP=^appKD for 6-TGDP/(1+[[^3H]GDP]/^trueKD for GDP) (Heo, J., and Hong, I. (2010) Biochemistry 49, 3965-3976), in conjunction with the values given. […] The GDP dissociation rates from RhoC C20S by NO, .NO2, and N2O3 were estimated to be 0.02×10^−3, 0.05×10^−3, and 0.04×10^−3 s^−1, respectively. […] (D) ^appKD values of RhoC for [^3H]GDP in the presence or absence of DTT were estimated to be 22.4 μM and […], respectively. ^appKD values of C20S RhoC for [^3H]GDP in the presence or absence of DTT were determined to be 24.8 μM and 25.2 μM, respectively. The regression values associated with these fits were >0.8595. All data points associated with vertical standard error bars shown in this figure are the mean values of triplicate measurements.
Transition metal-free assay buffer and vials as described in a previous study (Heo et al. Biochemistry 49, 3965-3976 (2010)) were used for all kinetic assays. The kinetic assay buffer contains the highest grade of 50 mM NaCl, 10 mM MgCl2, 1 mM EDTA, and 0.1 mM DTPA in 50 mM TrisHCl (pH 7.4). Before performance of any of the assays, all protein samples also were dialyzed with a metal-free buffer under anaerobic conditions. As with RhoA and Rac1 (Heo et al. J. Biol. Chem. 280, 31003-31010 (2005)), C20S RhoC were expressed in E. coli and purified using anionic and size exclusion columns.
(a) A competitive binding assay was performed to determine the binding affinity of Rho GTPase and 6-TGDP. The radiolabeled [^3H]GDP-loaded Rho protein (1 μM) was titrated with various concentrations of 6-TGDP. The titrated Rho protein sample then was spotted onto a nitrocellulose membrane. Each membrane was washed three times with the assay buffer, and radioactivity was determined using a Beckman-Coulter scintillation counter. The radioactivity of the sample (Rho protein-bound [^3H]GDP) was converted into, and thus plotted, as the fraction of mol GDP per mol total Rho protein. The apparent dissociation constant (^appKD) of the Rho protein with [^3H]GDP in the presence of 6-TGDP was determined by using Prism software to fit the titration curve to a hyperbola.

RhoA = molecular target: T1, RhoA (Homo sapiens, UniProt P61586); experiment: Guanine nucleotide exchange of [3H]GDP-loaded GTPase with 6-TGDP (FIG. 13A); assay type: binding
T1 construct: made in house; host or cells: E. coli
Description: (§1) FIG. 13. Guanine nucleotide exchange of small GTPases with 6-TGDP. (A) To monitor 6-TGDP-mediated GTPase GDP dissociation, [^3H]GDP-loaded GTPase (1 μM) was incubated with 6-TGDP (0-2000 μM) for 1 h. (B) To monitor GTPase 6-TGDP dissociation by GDP (0-2000 μM) in the presence and absence of dithiothreitol (DTT), 6-TGDP-loaded GTPase (˜1 μM) was treated with .NO2 (˜3 μM) under anaerobic conditions and was incubated with various concentrations of [^3H]GDP (0-2000 μM) in the presence and absence of DTT (10 mM) for 1 h. For all assays, aliquots were withdrawn and spotted onto nitrocellulose filters. The filters were then washed three times with an assay buffer, and radioactivity was determined using a Beckman-Coulter scintillation counter. The resultant radioactivity (dpm) values associated with GTPase-bound [^3H]GDP were converted into the fraction of mol nucleotide per mol total GTPase. The data presented represent mean and standard error values from triplicate measurements. The apparent dissociation constants (appKD values) of GTPase 6-TGDP association ([^3H]GDP dissociation, A); and 6-TGDP dissociation ([3H]GDP association, B) were obtained by fitting the data to a simple dissociation and association, respectively. […]
(§2) A kinetic assay method using radiolabeled GDP ([^3H]GDP) was established. The apparent dissociation constants (^appKD 6-TGDP) of Rho GTPases (including RhoA, Cdc42, and Rac1/2/3) and Ras with 6-TGDP were determined (FIG. 13). […]
(§3) The true dissociation constant (^trueKD 6-TGDP) of Ras, RhoC, RhoA and Rac1 for 6-TGDP was then calculated to be ˜20.7 pM, 212 μM, 208 μM, and 158 μM [6-TGDP] by using a compensation equation, ^trueKD 6-TGDP=^appKD 6-TGDP/(1+[GDP]/^trueKD GDP) (95), in conjunction with the values given [(^appKD 6-TGDP of Ras, RhoC, RhoA, and Rac1=2300, 230, 224, and 245 μM (FIG. 13) and ^trueKD GDP=9 pM, 12 μM, 13 μM and 1.8 μM, respectively. The ^trueKD GDP of Ras, RhoA and Rac1 was determined previously (Lenzen et al. Biochemistry 37, 7420-7430 (1998); Heo et al. Biochemistry 44, 6573-6585 (2005)) and the ^trueKD GDP of RhoC was further determined. […]

Ras = Ras (Homo sapiens, UniProt P01112); experiment: as above; assay type: binding; details: [3H]GDP-loaded GTPase 1 μM, 6-TGDP 0-2000 μM, 1 h, read-out: appKD for 6-TGDP
Description: as §1, §2, §3

T1 sequence (P61586 whole entry, species assumed): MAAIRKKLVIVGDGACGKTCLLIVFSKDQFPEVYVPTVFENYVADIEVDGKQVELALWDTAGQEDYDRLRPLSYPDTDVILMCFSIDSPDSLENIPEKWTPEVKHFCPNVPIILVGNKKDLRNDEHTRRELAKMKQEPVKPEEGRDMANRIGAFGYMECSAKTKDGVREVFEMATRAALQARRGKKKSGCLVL
Sequence of Ras (P01112 whole entry): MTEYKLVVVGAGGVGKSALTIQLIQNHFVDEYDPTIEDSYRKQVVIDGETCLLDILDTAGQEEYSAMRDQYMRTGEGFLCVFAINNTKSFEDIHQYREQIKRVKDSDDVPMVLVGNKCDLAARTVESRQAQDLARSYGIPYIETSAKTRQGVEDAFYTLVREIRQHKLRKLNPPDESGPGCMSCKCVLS

Kd (Rac1; [3H]GDP-loaded Rho protein 1 μM titrated with 6-TGDP, read-out: appKD for 6-TGDP): 7.9 µM
Kd (Rac1; calculated by compensation equation, read-out: trueKD for 6-TGDP): 5.1 µM
Kd (RhoA; [3H]GDP-loaded GTPase 1 μM, 6-TGDP 0-2000 μM, 1 h, FIG. 13A, read-out: appKD for 6-TGDP): 224 µM
Kd (RhoA; calculated by compensation equation from appKD 6-TGDP and trueKD GDP, read-out: trueKD 6-TGDP): 208 µM
Kd (Ras): 2300 µM
SMILES: Nc1nc2c(ncn2[C@@H]2O[C@H](COP(=O)(O)OP(=O)(O)O)[C@@H](O)[C@H]2O)c(=S)[nH]1 [6-TGDP, 6-thioguanosine diphosphate]
